target: human MGL from HeLa cells (Homo sapiens (Human), UniProt Q99685); assay: MGL in vitro activity assay ([glycerol-1,3-3H]-oleoyl glycerol hydrolysis, activated carbon filtration); type: biochemical; conditions: 300 nM [Glycerol-1,3-3H]-oleoyl glycerol, one hour
Outline: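 Endogenous human MGL in HeLa cells/homogenates incubated 1 h with test compounds and 300 nM [glycerol-1,3-3H]-oleoyl glycerol. Released 3H-glycerol passing an activated carbon filter counted as activity; screening at 10 μM compound, top IC50 concentration set empirically.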

Chain of human MGL from HeLa cells (Q99685 whole entry): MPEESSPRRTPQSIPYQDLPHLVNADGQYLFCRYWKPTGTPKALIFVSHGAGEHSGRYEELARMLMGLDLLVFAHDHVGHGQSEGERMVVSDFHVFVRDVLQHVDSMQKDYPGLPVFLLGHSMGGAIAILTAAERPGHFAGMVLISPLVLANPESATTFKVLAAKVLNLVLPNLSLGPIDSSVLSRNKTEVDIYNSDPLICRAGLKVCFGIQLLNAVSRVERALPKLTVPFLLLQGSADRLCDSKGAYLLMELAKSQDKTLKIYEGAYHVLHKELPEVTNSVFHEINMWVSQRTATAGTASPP

SMILES	IC50 [µM]
C[C@]1(O)C[C@@H](C(=O)N2CC3(CC[C@H](c4cccc(C5CC5)c4F)C3)C2)C1 (stereo in doubt) [Example 26, ((*S)-6-(3-Cyclopropyl-2-fluorophenyl)-2-azaspiro[3.4]octan-2-yl)((1s,3*R)-3-hydroxy-3-methylcyclobutyl)methanone]	0.028
CC(C)(C)c1cccc([C@@H]2CCC3(C2)CN(C(=O)[C@H]2C[C@@](C)(O)C2)C3)c1 (stereo in doubt) [Example 44, ((*R)-6-(3-(tert-Butyl)phenyl)-2-azaspiro[3.4]octan-2-yl)((1s,3*S)-3-hydroxy-3-methylcyclobutyl)methanone]	0.0098
CC(C)(C)c1cccc([C@H]2CCC3(C2)CN(C(=O)[C@H]2C[C@@](C)(O)C2)C3)c1 (stereo in doubt) [Example 45, ((*S)-6-(3-(tert-Butyl)phenyl)-2-azaspiro[3.4]octan-2-yl)((1s,3*R)-3-hydroxy-3-methylcyclobutyl)methanone]	0.011
C[C@]1(O)C[C@@H](C(=O)N2CC3(CC[C@@H](c4ccc(C(F)(F)F)cc4)C3)C2)C1 (stereo in doubt) [Example 56, ((1s,3*S)-3-Hydroxy-3-methylcyclobutyl)((*R)-6-(4-(trifluoromethyl)phenyl)-2-azaspiro[3.4]octan-2-yl)methanone]	0.022
C[C@]1(O)C[C@@H](C(=O)N2CC3(CC[C@H](c4ccc(C(F)(F)F)cc4)C3)C2)C1 (stereo in doubt) [Example 57, ((1s,3*R)-3-Hydroxy-3-methylcyclobutyl)((*S)-6-(4-(trifluoromethyl)phenyl)-2-azaspiro[3.4]octan-2-yl)methanone]	0.024
C[C@]1(O)C[C@@H](C(=O)N2CC3(CC[C@@H](c4cccc(C5CC5)c4)C3)C2)C1 (stereo in doubt) [Example 59, ((*R)-6-(3-Cyclopropylphenyl)-2-azaspiro[3.4]octan-2-yl)((1s,3*S)-3-hydroxy-3-methylcyclobutyl)methanone]	0.037
C[C@]1(O)C[C@@H](C(=O)N2CC3(CC[C@H](c4cccc(C5CC5)c4)C3)C2)C1 (stereo in doubt) [Example 60, ((*S)-6-(3-Cyclopropylphenyl)-2-azaspiro[3.4]octan-2-yl)((1s,3*R)-3-hydroxy-3-methylcyclobutyl)methanone]	0.025
C[C@]1(O)C[C@@H](C(=O)N2CC3(CC[C@H](c4cccc(C(F)(F)F)c4)C3)C2)C1 (stereo in doubt) [Example 63, ((1s,3*R)-3-Hydroxy-3-methylcyclobutyl)((*S)-6-(3-(trifluoromethyl)phenyl)-2-azaspiro[3.4]octan-2-yl)methanone]	0.022
C[C@]1(O)C[C@@H](C(=O)N2CC3(CC[C@H](Cc4cccc(C(F)(F)F)c4)C3)C2)C1 (stereo in doubt) [Example 177, ((1s,3*S)-3-Hydroxy-3-methylcyclobutyl)((*R)-6-(3-(trifluoromethyl)benzyl)-2-azaspiro[3.4]octan-2-yl)methanone]	0.014
C[C@@H](c1ccccc1)C1CC2(C1)CN(C(=O)[C@H]1C[C@@](C)(O)C1)C2 (stereo in doubt) [Example 310, ((1s,3*S)-3-Hydroxy-3-methylcyclobutyl)(6-((*R)-1-phenylethyl)-2-azaspiro[3.3]heptan-2-yl)methanone]	0.033
Cc1nc([C@H](C)C2CC3(C2)CN(C(=O)[C@H]2C[C@@](C)(O)C2)C3)ccc1C(F)(F)F (stereo in doubt) [Example 312, ((1s,3*S)-3-Hydroxy-3-methylcyclobutyl)(6-((*R)-1-(6-methyl-5-(trifluoromethyl)pyridin-2-yl)ethyl)-2-azaspiro[3.3]heptan-2-yl)methanone]	0.0054
C[C@@H](c1ccc2cnn(C)c2c1)C1CC2(C1)CN(C(=O)[C@H]1C[C@@](C)(O)C1)C2 (stereo in doubt) [Example 314, ((1s,3*S)-3-Hydroxy-3-methylcyclobutyl)(6-((*R)-1-(1-methyl-1H-indazol-6-yl)ethyl)-2-azaspiro[3.3]heptan-2-yl)methanone]	0.13
C[C@H](c1ccc2cnn(C)c2c1)C1CC2(C1)CN(C(=O)[C@H]1C[C@@](C)(O)C1)C2 (stereo in doubt) [Example 315, ((1s,3*R)-3-Hydroxy-3-methylcyclobutyl)(6-((*S)-1-(1-methyl-1H-indazol-6-yl)ethyl)-2-azaspiro[3.3]heptan-2-yl)methanone]	0.045
Cc1ccc([C@H]2CCC3(C2)CN(C(=O)[C@H]2C[C@@](C)(O)C2)C3)c(C)c1 (stereo in doubt) [Example 321, ((*S)-6-(2,4-Dimethylphenyl)-2-azaspiro[3.4]octan-2-yl)((1s,3*R)-3-hydroxy-3-methylcyclobutyl)methanone]	0.036

Further compounds by falling IC50, results first:

IC50 [µM]	SMILES
0.326	Cc1cc(C)cc([C@H]2CC[C@]3(CC2)CN(C(=O)[C@H]2C[C@@](C)(O)C2)[C@H]3C)c1 (stereo in doubt) [Example 348, ((1*S,4r,7*S)-7-(3,5-Dimethylphenyl)-1-methyl-2-azaspiro[3.5]nonan-2-yl)((1s,3*R)-3-hydroxy-3-methylcyclobutyl)methanone]
0.077	C[C@H](c1ccccc1)C1CC2(C1)CN(C(=O)[C@H]1C[C@@](C)(O)C1)C2 (stereo in doubt) [Example 311, ((1s,3*R)-3-Hydroxy-3-methylcyclobutyl)(6-((*S)-1-phenylethyl)-2-azaspiro[3.3]heptan-2-yl)methanone]
0.064	Cc1ccc([C@@H]2CCC3(C2)CN(C(=O)[C@H]2C[C@@](C)(O)C2)C3)c(C)c1 (stereo in doubt) [Example 322, ((*R)-6-(2,4-Dimethylphenyl)-2-azaspiro[3.4]octan-2-yl)((1s,3*S)-3-hydroxy-3-methylcyclobutyl)methanone]
0.052	Cc1nc([C@@H](C)C2CC3(C2)CN(C(=O)[C@H]2C[C@@](C)(O)C2)C3)ccc1C(F)(F)F (stereo in doubt) [Example 313, ((1s,3*R)-3-Hydroxy-3-methylcyclobutyl)(6-((*S)-1-(6-methyl-5-(trifluoromethyl)pyridin-2-yl)ethyl)-2-azaspiro[3.3]heptan-2-yl)methanone]
0.034	C[C@]1(O)C[C@@H](C(=O)N2CC3(CC[C@@H](c4cccc(C(F)(F)F)c4)C3)C2)C1 (stereo in doubt) [Example 62, ((1s,3*S)-3-Hydroxy-3-methylcyclobutyl)((*R)-6-(3-(trifluoromethyl)phenyl)-2-azaspiro[3.4]octan-2-yl)methanone]
0.023	C[C@]1(O)C[C@@H](C(=O)N2CC3(CC[C@@H](c4cccc(OC(F)(F)F)c4)C3)C2)C1 (stereo in doubt) [Example 41, ((1s,3*S)-3-Hydroxy-3-methylcyclobutyl)((*R)-6-(3-(trifluoromethoxy)phenyl)-2-azaspiro[3.4]octan-2-yl)methanone]
0.022	C[C@]1(O)C[C@@H](C(=O)N2CC3(CC[C@H](c4cccc(OC(F)(F)F)c4)C3)C2)C1 (stereo in doubt) [Example 42, ((1s,3*R)-3-Hydroxy-3-methylcyclobutyl)((*S)-6-(3-(trifluoromethoxy)phenyl)-2-azaspiro[3.4]octan-2-yl)methanone]
0.021	CC(C)c1cccc([C@@H]2CCC3(C2)CN(C(=O)[C@H]2C[C@@](C)(O)C2)C3)c1 (stereo in doubt) [Example 47, ((1s,3*S)-3-Hydroxy-3-methylcyclobutyl)((*R)-6-(3-isopropylphenyl)-2-azaspiro[3.4]octan-2-yl)methanone]
0.017	CC(C)c1cccc([C@H]2CCC3(C2)CN(C(=O)[C@H]2C[C@@](C)(O)C2)C3)c1 (stereo in doubt) [Example 48, ((1s,3*R)-3-Hydroxy-3-methylcyclobutyl)((*S)-6-(3-isopropylphenyl)-2-azaspiro[3.4]octan-2-yl)methanone]
0.011	C[C@]1(O)C[C@@H](C(=O)N2CC3(CC[C@@H](Cc4cccc(C(F)(F)F)c4)C3)C2)C1 (stereo in doubt) [Example 178, ((1s,3*R)-3-Hydroxy-3-methylcyclobutyl)((*S)-6-(3-(trifluoromethyl)benzyl)-2-azaspiro[3.4]octan-2-yl)methanone]
0.01	C[C@]1(O)C[C@@H](C(=O)N2CC3(CC[C@@H](c4ccc(OC(F)(F)F)cc4)C3)C2)C1 (stereo in doubt) [Example 53, ((1s,3*S)-3-Hydroxy-3-methylcyclobutyl)((*R)-6-(4-(trifluoromethoxy)phenyl)-2-azaspiro[3.4]octan-2-yl)methanone]
0.01	C[C@]1(O)C[C@@H](C(=O)N2CC3(CC[C@H](c4ccc(OC(F)(F)F)cc4)C3)C2)C1 (stereo in doubt) [Example 54, ((1s,3*R)-3-Hydroxy-3-methylcyclobutyl)((*S)-6-(4-(trifluoromethoxy)phenyl)-2-azaspiro[3.4]octan-2-yl)methanone]
0.0081	Cc1cc([C@@H]2CCC3(C2)CN(C(=O)[C@H]2C[C@@](C)(O)C2)C3)ccc1OC(F)F (stereo in doubt) [Example 73, ((*R)-6-(4-(Difluoromethoxy)-3-methylphenyl)-2-azaspiro[3.4]octan-2-yl)((1s,3*S)-3-hydroxy-3-methylcyclobutyl)methanone]
0.0068	Cc1cc([C@H]2CCC3(C2)CN(C(=O)[C@H]2C[C@@](C)(O)C2)C3)ccc1OC(F)F (stereo in doubt) [Example 74, ((*S)-6-(4-(Difluoromethoxy)-3-methylphenyl)-2-azaspiro[3.4]octan-2-yl)((1s,3*R)-3-hydroxy-3-methylcyclobutyl)methanone]
0.004	C[C@]1(O)C[C@@H](C(=O)N2CC3(CC[C@@H](c4cccc(C5CC5)c4F)C3)C2)C1 (stereo in doubt) [Example 25, ((*R)-6-(3-Cyclopropyl-2-fluorophenyl)-2-azaspiro[3.4]octan-2-yl)((1s,3*S)-3-hydroxy-3-methylcyclobutyl)methanone]
